Source: the supplement of paper PMC10307832

Assays:
Test in all cases: relative viability (nuclei count vs DMSO), 5 days (fraction); higher = more cells survive
[1] = compound: O=c1[nH]cc(F)c(=O)[nH]1 [5-Fluorouracil] + CC1(C)CCC(c2ccc(Cl)cc2)=C(CN2CCN(c3ccc(C(=O)NS(=O)(=O)c4ccc(N[C@H](CCN5CCOCC5)CSc5ccccc5)c(S(=O)(=O)C(F)(F)F)c4)cc3)CC2)C1 [Navitoclax] (partner 0.5 µM)
In short: (§1)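 Lung cancer cell lines in 1536-well plates got either a single drug or a fixed anchor-drug dose together with five library-drug doses (not always all listed) in √10 steps, by pin tool, on the day after seeding. Nuclei were counted after 5 days, and relative viability is the treated-to-vehicle ratio of nuclei counts. Values are medians of duplicate plates.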

[2] = compound: O=c1[nH]cc(F)c(=O)[nH]1 [5-Fluorouracil] + Cc1nc(NC(=O)N2CCC[C@H]2C(N)=O)sc1-c1ccnc(C(C)(C)C(F)(F)F)c1 [Alpelisib] (partner 2 µM)
In short: as §1

[3] = compound: O=c1[nH]cc(F)c(=O)[nH]1 [5-Fluorouracil] + Cc1cc(Nc2cc(N3CCN(C)CC3)nc(Sc3ccc(NC(=O)C4CC4)cc3)n2)n[nH]1 [Tozasertib] (partner 0.1 µM)
In short: as §1

Sulindac + Navitoclax = compound: CC1=C(CC(=O)O)c2cc(F)ccc2/C1=C\c1ccc([S+](C)[O-])cc1 [Sulindac] + CC1(C)CCC(c2ccc(Cl)cc2)=C(CN2CCN(c3ccc(C(=O)NS(=O)(=O)c4ccc(N[C@H](CCN5CCOCC5)CSc5ccccc5)c(S(=O)(=O)C(F)(F)F)c4)cc3)CC2)C1 [Navitoclax] (partner 0.5 µM)
In short: as §1

| Cell Line | relative viability ([1]; first compound 0.02 µM) | relative viability ([1]; first compound 0.2 µM) | relative viability ([1]; first compound 0.6325 µM) | relative viability ([1]; first compound 2 µM) | relative viability ([2]; first compound 0.02 µM) | relative viability ([2]; first compound 0.2 µM) | relative viability ([2]; first compound 0.6325 µM) | relative viability ([2]; first compound 2 µM) | relative viability ([3]; first compound 0.02 µM) | relative viability ([3]; first compound 0.2 µM) | relative viability ([3]; first compound 0.6325 µM) | relative viability ([3]; first compound 2 µM) | relative viability (Sulindac + Navitoclax; first compound 0.08 µM) | relative viability (Sulindac + Navitoclax; first compound 0.253 µM) | relative viability (Sulindac + Navitoclax; first compound 0.8 µM) | relative viability (Sulindac + Navitoclax; first compound 2.53 µM) | relative viability (Sulindac + Navitoclax; first compound 8 µM) |
| --- | --- | --- | --- | --- | --- | --- | --- | --- | --- | --- | --- | --- | --- | --- | --- | --- | --- |
| NCI-H2023 | 1.01 | 0.257 | 0.161 | 0.122 | 0.456 | 0.256 | 0.124 | 0.0987 | 0.441 | 0.146 | 0.112 | 0.0913 | 1.37 | 0.987 | 0.987 | 0.977 | 1.24 |
| NCI-H2085 | 0.972 | 1.14 | 1.08 | 0.875 | 0.689 | 1.03 | 0.828 | 0.613 | 0.867 | 0.784 | 0.828 | 0.608 | 1.18 | 1.21 | 0.979 | 1.18 | 1.14 |
| NCI-H2087 | 0.928 | 0.917 | 0.573 | 0.557 | 0.977 | 0.923 | 0.659 | 0.536 | 0.282 | 0.236 | 0.253 | 0.156 | 0.958 | 0.939 | 0.88 | 0.973 | 1.1 |
| NCI-H2126 | 0.827 | 0.367 | 0.303 | 0.298 | 0.668 | 0.337 | 0.274 | 0.272 | 0.634 | 0.392 | 0.316 | 0.281 | 0.823 | 0.894 | 0.817 | 0.856 | 0.853 |
| NCI-H2170 | 0.573 | 0.557 | 0.351 | 0.31 | 0.82 | 0.734 | 0.472 | 0.452 | 0.796 | 0.671 | 0.436 | 0.32 | 0.564 | 0.638 | 0.495 | 0.71 | 0.6 |
| NCI-H2228 | 0.808 | 1.06 | 0.732 | 0.42 | 0.582 | 0.655 | 0.59 | 0.409 | 0.293 | 0.25 | 0.24 | 0.187 | 0.937 | 0.967 | 0.839 | 1.46 | 1.01 |
| NCI-H2347 | 0.638 | 0.65 | 0.369 | 0.354 | 1.09 | 0.709 | 0.457 | 0.447 | 0.606 | 0.425 | 0.303 | 0.292 | 0.821 | 0.803 | 0.641 | 0.725 | 0.862 |
| NCI-H2405 | 0.93 | 0.793 | 0.858 | 0.59 | 0.793 | 0.705 | 0.737 | 0.609 | 0.686 | 0.81 | 0.733 | 0.703 | 0.934 | 0.9 | 0.783 | 0.859 | 1.11 |
| NCI-H3122 | 1.04 | 0.743 | 0.443 | 0.259 | 0.796 | 0.653 | 0.371 | 0.246 | 0.382 | 0.356 | 0.203 | 0.157 | 0.913 | 0.999 | 1.01 | 0.992 | 1.05 |
| PC-3 [JPC-3] | 0.793 | 0.759 | 0.767 | 0.63 | 0.913 | 1.04 | 0.838 | 0.708 | 0.828 | 0.881 | 0.827 | 0.554 | 0.971 | 0.758 | 0.786 | 0.762 | 0.752 |
| PC-14 | 1.13 | 1.05 | 0.791 | 0.499 | 1.02 | 0.962 | 0.748 | 0.424 | 0.54 | 0.618 | 0.599 | 0.453 | 0.933 | 1.1 |  | 1.07 | 1.14 |
| RERF-LC-KJ | 0.834 | 0.971 | 1.01 | 0.554 | 0.764 | 0.836 | 0.852 | 0.62 | 0.499 | 0.432 | 0.416 | 0.414 | 1.23 | 0.983 | 0.797 | 0.749 | 1.11 |
| SK-LU-1 | 1.1 | 1.2 | 0.796 | 0.753 | 0.934 | 1.12 | 0.868 | 0.704 | 0.412 | 0.408 | 0.346 | 0.338 | 0.96 | 0.875 | 0.694 | 0.84 | 1.54 |
| SK-MES-1 | 1.2 | 0.789 | 0.474 | 0.373 | 0.798 | 0.789 | 0.447 | 0.341 | 1.05 | 0.408 | 0.319 | 0.28 | 1.43 | 1.3 | 1.31 | 1.27 | 1.45 |
| SW 1573 | 1.02 | 1.13 | 0.782 | 0.501 | 0.705 | 0.877 | 0.867 | 0.507 | 0.205 | 0.175 | 0.183 | 0.153 |  | 1.02 |  | 1.09 | 1.2 |
